Marks after values point to notes of the source that are not given here.
Tested on: chicken embryos
Assay: Metabolic profiling of blood plasma (GC-MS, LC-MS, OPLS-DA)
Format: in vivo, Gallus gallus domesticus
Experimental: Controls were injected with 20 μL vehicle only (DMSO).
Plasma was collected and stored at -70°C.
Metabolites in allantoic fluid and blood plasma were analyzed using gas chromatography-mass spectrometry (GC-MS) and liquid chromatography-mass spectrometry (LC-MS) as described in S1 Methods. Prior to GC-MS and LC-MS analysis, allantoic fluid (100 μL) and blood plasma (50 μL) were extracted. To each sample, 900 μL (allantoic fluid) or 450 μL (blood plasma) of extraction buffer (90/10 v/v methanol:water) including all internal standards were added. Standards for GC-MS were proline, succinic acid, glutamic acid, salicylic acid, alpha-ketoglutarate, putrescine, myristic acid, hexadecanoic acid, cholesterol, and sucrose. Standards for LC-MS were Val-Tyr-Val, Leu-enkephalin, sulfadimethoxine and reserpine. Samples were homogenized by shaking in a bead mill at a frequency of 30 Hz for 3 minutes and proteins were precipitated at +4°C on ice. The samples were centrifuged at +4°C, 14000 rpm, for 10 min. Then, 200 μL supernatant was transferred to a GC microvial and 200 μL was transferred to an LC microvial, and solvents were evaporated. Samples from the four replicate experiments were analyzed using in chronological order and within each replicate experiment the run order of the individual samples was randomized.
Multivariate statistical analyses of metabolite profiles were performed using the software package SIMCA-P version 13.0 (Umetrics, Umeå, Sweden). Data was centered and scaled to variance 1 (UV scaling) prior to modelling. To reduce unintended systematic variation caused by sample processing and instrument drift, GC-MS and LC-MS metabolite amounts (expressed as the area under the chromatographic peak) were normalized by Orthogonal Partial Least Squares analysis (O2PLS) prior to multivariate data analysis. O2PLS finds common (predictive) and unique (orthogonal) variation in two data matrices. If applied to find the common variation between the data matrix containing the measured metabolite concentrations and a matrix containing only the internal standards, the only common (predictive) variation expected is due to the unintended systematic variation. By deleting the contribution of the predictive latent variables, that variation can be removed from the data. Models obtained after this normalization contain in general less latent variables, and this simplification helps when deciding on the number of latent variables to be used. Following normalization, GC-MS and LC-MS data were analyzed together. Initially, a global Principal Component Analysis (PCA) was performed to get an overview of groups and trends and to identify outliers. Projections to latent structures by means of Orthogonal Partial Least Squares Discriminant Analysis (OPLS-DA) was used to model the relationship between the X-matrix (metabolite concentrations) and the Y matrix (class, i.e. exposure group or sex), and to find x-variables that were related to class belonging. OPLS-DA is a supervised prediction and regression method that rotates the projection plane to find the maximum covariance between the data and the class assignment. All groups were first analyzed together in a 5-class OPLS-DA and then each exposure group was analyzed against the control group in a 2-class OPLS-DA. Sex differences were analyzed both using the whole data set and in each group separately using 2-class OPLS-DA, with females and males as the two classes. Only variables with 80% or more nonzero values were included in the statistical models. […] The validity of each model was also checked using CV-ANOVA (ANOVA of the cross-validated residuals). A significance level of p < 0.05 was used. For each model, R ^2 X, R ^2 Y and Q ^2 values were calculated, where R ^2 X is a measure of the fraction of x variation modeled in the extracted latent variables, R ^2 Y is a measure of the fraction of y variation modeled and Q ^2 is an estimate of the predictive ability of the model and is calculated by cross-validation. […]

## CN(CCOc1ccc(CC2SC(=O)NC2=O)cc1)c1ccccn1 (centres unmarked) [Rosiglitazone, rosiglitazone, reference compound]
GC
  Mean concentration relative to control, feature Win006_C03: 1.2*
  Mean concentration relative to control, feature Win011_C02 (Isoleucine): 1.1
  Mean concentration relative to control, feature Win027_C13: 0.9
  Mean concentration relative to control, feature Win031_C03 (Citric acid): 1
  Mean concentration relative to control, feature Win034_C08 (Tyrosine): 1
  Mean concentration relative to control, feature Win034_C09 (Tyrosine): 1.1
  Mean concentration relative to control, feature Win039_C07: 1.2
  Mean concentration relative to control, feature Win043_C02 (Cystathionine): 1
  Mean concentration relative to control, feature Win061_C01: 0.9
  Mean concentration relative to control, feature Win066_C03: 1
  Mean concentration relative to control, feature Win088_C02: 1
LC
  Mean concentration relative to control, feature 118.0284@2.480333 (C4H6O4): 0.8**
  Mean concentration relative to control, feature 122.0486@0.675613: 1
  Mean concentration relative to control, feature 126.0428@1.2278157 (Thymine): 1.0
  Mean concentration relative to control, feature 146.0362@0.7772238: 1.1
  Mean concentration relative to control, feature 159.0686@1.1608156: 1.1
  Mean concentration relative to control, feature 164.0449@0.7694838: 1.1
  Mean concentration relative to control, feature 202.1024@5.0303197 (C8H14N2O4): 1.1
  Mean concentration relative to control, feature 203.1162@0.5130696: 1
  Mean concentration relative to control, feature 213.2458@7.4887733: 1
  Mean concentration relative to control, feature 215.047@1.6260729 (C5H14NO6P): 0.9*
  Mean concentration relative to control, feature 226.0721@1.9460537: 1
  Mean concentration relative to control, feature 231.0174@1.6241412: 0.8*
  Mean concentration relative to control, feature 233.1265@2.535991: 1
  Mean concentration relative to control, feature 250.1317@2.1334834: 1.2
  Mean concentration relative to control, feature 260.0508@0.69984084: 0.8*
  Mean concentration relative to control, feature 276.0173@1.6283482: 0.9
  Mean concentration relative to control, feature 278.0939@1.3354088: 0.9
  Mean concentration relative to control, feature 293.0903@1.5739433: 1
  Mean concentration relative to control, feature 307.2147@7.5065937 (C18H29NO3): 0.9
  Mean concentration relative to control, feature 310.178@7.5343466: 1
  Mean concentration relative to control, feature 339.3861@9.528681: 1.2
  Mean concentration relative to control, feature 342.2883@7.526812: 1
  Mean concentration relative to control, feature 348.0675@1.5761927: 1
  Mean concentration relative to control, feature 355.9454@0.68034226: 1
  Mean concentration relative to control, feature 362.1467@0.8461036: 1.1
  Mean concentration relative to control, feature 366.1431@1.4228548: 0.9*
  Mean concentration relative to control, feature 373.296@9.044806: 1
  Mean concentration relative to control, feature 375.3108@8.995564: 1
  Mean concentration relative to control, feature 389.2686@9.046645: 1
  Mean concentration relative to control, feature 407.0999@1.585909: 0.9*
  Mean concentration relative to control, feature 412.135@2.4779084 (C17H24N4O6S): 0.8**
  Mean concentration relative to control, feature 444.3607@10.33052: 0.9
  Mean concentration relative to control, feature 471.9819@0.685074: 1
  Mean concentration relative to control, feature 489.1508@8.562614: 0.7*
  Mean concentration relative to control, feature 509.1184@2.4798179: 0.8**
  Mean concentration relative to control, feature 525.2855@8.361063: 0.9
  Mean concentration relative to control, feature 545.2492@8.463657: 0.9
  Mean concentration relative to control, feature 558.4095@9.459733: 1.2*
  Mean concentration relative to control, feature 565.1902@0.7699907: 1.1
  Mean concentration relative to control, feature 577.2747@9.25652: 1.1
  Mean concentration relative to control, feature 581.1643@0.77029324: 1.1
  Mean concentration relative to control, feature 634.2403@1.9467853: 1
  Mean concentration relative to control, feature 644.1614@0.7647065: 1.1
  Mean concentration relative to control, feature 659.5483@11.4915495: 1.0
  Mean concentration relative to control, feature 698.2598@1.3599721: 1.2*
  Mean concentration relative to control, feature 700.5514@10.765638: 1.1
  Mean concentration relative to control, feature 755.5465@10.73882: 1.4*
  Mean concentration relative to control, feature 827.5078@8.831237: 1
  Mean concentration relative to control, feature 875.4661@10.5661745: 1.0
  Mean concentration relative to control, feature 1262.4865@1.947075: 1
  Mean concentration relative to control, feature 1316.4163@1.9465046: 1.1*
  Mean concentration relative to control, feature 1591.051@5.0189176: 0.8**
  Mean concentration relative to control, feature 1591.388@5.0202384: 0.9*
  Mean concentration relative to control, feature 1591.7203@5.018071: 0.9*

Reference: PMC4666608, “Metabolic Profiling of Chicken Embryos Exposed to Perfluorooctanoic Acid (PFOA) and Agonists to Peroxisome Proliferator-Activated Receptors” (PLoS ONE, 2015)
